# PubChem BioAssay (NCI)
#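 The compound was tested at five concentrations on cells cultured in 96-well plates, with a 48-hour exposure period. Here, GI50 denotes the concentration required for 50% inhibition of growth. TGI: concentration producing complete growth inhibition.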
# Tests used:
# Test in all cases: inhibition of tumour cell growth, NCI panel, 48 h
# SN12C renal = tested on: SN12C renal
# CAKI-1 renal = tested on: CAKI-1 renal
# SW-620 colon = tested on: SW-620 colon
# EKVX NSCLC = tested on: EKVX NSCLC
# A549 NSCLC = tested on: A549 NSCLC
# MALME-3M melanoma = tested on: MALME-3M melanoma
# PC-3 prostate = tested on: PC-3 prostate
# A498 renal = tested on: A498 renal
# UACC-62 melanoma = tested on: UACC-62 melanoma
# NCI/ADR-RES ovarian = tested on: NCI/ADR-RES ovarian
Structure (SMILES),GI50 (SN12C renal) [µM],TGI (SN12C renal),GI50 (CAKI-1 renal),TGI (CAKI-1 renal) [µM],GI50 (SW-620 colon) [µM],TGI (SW-620 colon) [µM],GI50 (EKVX NSCLC),TGI (EKVX NSCLC),GI50 (A549 NSCLC) [µM],TGI (A549 NSCLC),GI50 (MALME-3M melanoma) [µM],TGI (MALME-3M melanoma) [µM],GI50 (PC-3 prostate),TGI (PC-3 prostate),GI50 (A498 renal),TGI (A498 renal),GI50 (UACC-62 melanoma) [µM],TGI (UACC-62 melanoma),TGI (NCI/ADR-RES ovarian) [µM]
COc1ccccc1CNCCCCCCCCCCCCN1C(=O)c2ccc3c4c(ccc(c24)C1=O)C(=O)N(CCCCCCCCCCCCNCc1ccccc1OC)C3=O,> 50,> 50 µM,> 50 µM,> 50,> 50,> 50,> 50 µM,> 50 µM,> 5,> 5 µM,> 50,> 50,> 5 µM,> 5 µM,0.806 µM,1.8 µM,> 50,> 50 µM,–
O=[N+]([O-])c1ccc(C(Nc2ccccc2)c2ccc3cccnc3c2O)cc1 (configuration not stated),–,> 56.2 µM,–,> 62.3,–,> 100,–,> 54.6 µM,–,> 100 µM,–,> 65.2,–,> 87.2 µM,–,> 100 µM,–,35.8 µM,> 69.3
C=C(C)[C@@H]1CC[C@]2(C(=O)O)CC[C@]3(C)[C@H](CCC4[C@@]5(C)CC[C@H](C(=O)/C=C/c6ccc(O)c(O)c6)C(C)(C)[C@@H]5CC[C@]43C)[C@@H]12 (some centres not stated),–,–,–,16.8,–,–,–,> 100 µM,–,> 100 µM,–,–,–,21.8 µM,–,–,–,27.6 µM,> 100
O=C(c1ccco1)N(C(=S)OC12CC3CC(CC(C3)C1)C2)c1ccccc1,–,62.8 µM,–,> 100,–,> 100,–,50.1 µM,–,> 100 µM,–,65.7,–,60.3 µM,–,84.6 µM,–,73.4 µM,> 100
c1ccc(-c2nnn(CCN3CCCCC3)n2)cc1,–,> 100 µM,–,> 100,–,> 100,–,> 100 µM,–,> 100 µM,–,> 100,–,> 100 µM,–,> 100 µM,–,> 100 µM,> 100
C=C1C(=O)O[C@H]2[C@H]3O[C@@H](C[C@@H]12)[C@](C)(O)CC[C@@H]1O[C@@]1(C)CCC[C@H]3C,–,65.2 µM,–,27.6,–,42.1,–,54.6 µM,–,> 100 µM,–,31,–,> 100 µM,–,73.2 µM,–,33.2 µM,> 100
CC1(C2CCC3(C)OC3C2)CO1 (configuration not stated),–,> 100 µM,–,> 100,–,> 100,–,> 100 µM,–,> 100 µM,–,> 100,–,–,–,–,–,> 100 µM,–
O=C1C=CC(=O)c2c(O)c(N3CCN(CCOCCO)CC3)c(Cl)c(O)c21,–,2.07 µM [middle of 4 runs],456 nM [middle of 4 runs],–,–,–,1.9 µM [middle of 4 runs],4.4 µM [middle of 4 runs],2.39,7.87 µM [middle of 4 runs],–,–,1.67 µM [middle of 4 runs],3.23 µM [middle of 4 runs],2.57 µM [middle of 4 runs],5.65 µM [middle of 4 runs],–,3.01 µM [middle of 4 runs],–
C=CC1CN2CCC1CC2C(O)c1ccnc2ccccc12 (configuration not stated),–,> 100 µM,–,> 100,–,> 100,> 100 µM,> 100 µM,–,> 100 µM,0.0846,> 100,–,> 100 µM,–,–,–,> 100 µM,> 100
Cc1[nH]c(=O)[nH]c(=S)c1C(=O)Nc1cccc2cc3ccccc3cc12,–,> 100 µM,–,> 100,–,> 100,–,> 100 µM,–,–,–,> 100,–,> 100 µM,–,> 100 µM,–,> 100 µM,> 100
Cc1cc2cc3c(cc2c(-c2ccc(N)cc2)n1)OCO3,–,> 100 µM,–,75.4,–,> 100,–,> 100 µM,–,> 100 µM,–,> 100,–,> 100 µM,–,–,–,> 100 µM,> 100
Cc1nc(-c2cc3cc(Cl)ccc3oc2=O)cc2c1c(=O)oc1ccc(Cl)cc12,–,> 100 µM,–,–,–,> 100,–,> 100 µM,–,> 100 µM,–,–,–,> 100 µM,–,> 100 µM,–,> 100 µM,> 100
COc1c(C)c(C/C=C(\C)CC/C=C(\C)CCC=C(C)C)c(OC)c(OC)c1OC,–,> 100 µM,–,> 100,–,> 100,–,> 100 µM,–,> 100 µM,–,–,–,> 100 µM,–,–,–,> 100 µM,> 100
C#CCC1(C(=O)OCC)C(=O)c2ccccc2N(C)C1=O (configuration not stated),–,> 100 µM,–,> 100,–,> 100,–,> 100 µM,–,–,–,> 100,–,–,–,> 100 µM,–,> 100 µM,–
CC(=O)/C(=C\c1ccc(Cl)c(Cl)c1)C(=O)C(C)CN(C)C (configuration not stated),–,20.6 µM,–,17.1,–,9.01,–,27.8 µM,–,35.7 µM,–,21.9,–,17 µM,–,8.16 µM,–,–,72.5
CC(=O)Nc1cc(Nc2cc(=O)[nH]c(=O)[nH]2)ccc1C,–,> 100 µM,–,–,–,> 100,–,> 100 µM,–,> 100 µM,–,> 100,–,> 100 µM,–,> 100 µM,–,–,> 100
CCOC(=O)C1(C(F)(F)F)N=C(CC)OC(N2CCOCC2)=N1 (configuration not stated),–,> 100 µM,–,> 100,–,> 100,–,> 100 µM,–,> 100 µM,–,–,–,> 100 µM,–,–,–,> 100 µM,> 100
CN(C)c1ccc(/C=C2\N=C(c3ccccc3)N(c3ccc4c(c3)Sc3cc(N5C(=O)/C(=C/c6ccc(N(C)C)cc6)N=C5c5ccccc5)ccc3N4)C2=O)cc1,–,38.9 µM,–,37.4,–,> 100,–,74.8 µM,–,52.2 µM,–,–,–,34.4 µM,–,31.8 µM,–,33.7 µM,89.2
CSc1nc(NC(C)C)c2c(n1)Sc1nc3ccccc3n1C2O (configuration not stated),–,> 100 µM,–,> 100,–,65.3,–,> 100 µM,–,> 100 µM,–,49.6,–,> 100 µM,–,–,–,–,–
CCN(CC)c1nc(N(C)C)c2ccccc2n1,–,> 100 µM,–,> 100,–,> 100,–,51.1 µM,–,> 100 µM,–,> 100,–,> 100 µM,–,–,–,56.1 µM,> 100
COC(=O)C1=C(O)C(C(=O)OC)[C@]2(O)[C@H](C(=O)OC)[C@H]1C[C@@H](c1ccc([N+](=O)[O-])cc1)[C@H]2C(=O)OC (some centres not stated),–,47.7 µM,–,> 100,–,58.4,–,> 100 µM,–,68.1 µM,–,17.5,–,51.9 µM,–,–,–,29.1 µM,51.8
Cc1cc2c(c(=O)n1C)SCC2,–,> 100 µM,–,> 100,–,> 100,–,–,–,> 100 µM,–,> 100,–,> 100 µM,–,> 100 µM,–,> 100 µM,> 100
